This note sets out measurements from patent US20260231994A1, “TASTE-ENHANCING COMPOSITION, METHOD FOR PRODUCING SAME, FOOD PRODUCT, AND METHOD FOR ENHANCING TASTE OF FOOD PRODUCT” (HOUSE FOODS GROUP INC., priority 2023, published 2026).

Common to all, as to format: in vivo
Assay [1] is described as follows: Experiment 6 sensory evaluation of cyclic dipeptides, “boosting of last flavor (aftertaste)”. The method in brief:
(§1)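 Reduced-sodium curry roux (44 g in 300 g hot water) was spiked with cyclic dipeptide solutions matching heat-treated coriander or paprika levels, at 0.5% or 1.0% (w/w) final. Three evaluators scored each sample against unspiked reduced-sodium and common roux. Mean scores were graded F to AA.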

Assay [2] is described as follows: Experiment 6 sensory evaluation of cyclic dipeptides, “middle fullness (enhanced thickness)”. The gist of the method: as §1
Assay [3] in a line: Experiment 1 sensory evaluation of “boosting of flavor” (cyclic dipeptides, coriander). The settings on record: for “boosting of flavor” Average: cyclic dipeptide aqueous solution (concentration as in heat-treated coriander) at final 0.2% (w/w) in reduced-sodium curry roux dispersion, score 1-5; for “boosting of flavor” Evaluation: cyclic dipeptide aqueous solution at final 0.2% (w/w) in reduced-sodium curry roux dispersion, class of average score. As for the experimental part:
Flour roux was prepared by putting 20 g of flour and 30 g of beef tallow in a pan, then heating with stirring at 120° C. To this flour roux were added 10 g of sodium chloride, 10 g of sugar, 10 g of cornstarch, 5 g of curry powder and 15 g of other seasoning ingredients (vegetable and fruit extracts, yeast extract and seafood extract), and after heat-treatment to 105° C., the mixture was cooled and solidified, to form a block of common curry roux.
The sodium chloride equivalent per 100 g of this curry roux was 10.6 g.
Reduced-sodium curry roux was prepared according to the same procedure, except that the amount of sodium chloride was reduced to 7 g from the amount in the common curry roux in (1).
The sodium chloride equivalent per 100 g of this reduced-sodium curry roux was 7.7 g.
Out of the cyclic dipeptides included in the heat-treated coriander prepared in 1.1. described above, which were confirmed to be increased in 1.2. above, an aqueous solution of the respective 14 cyclic dipeptides shown in the table described below was prepared. The concentration of the cyclic dipeptide in each aqueous solution was set to be equal to its concentration in the heat-treated coriander prepared in 1.1. described above, which was estimated from the ratio of the peak area of the cyclic dipeptide to the peak area of the internal standard (47 μg/g L-lysine-^13C6 monohydrochloride) confirmed in 1.2. described above.
Two dispersions of 44 g of the reduced-sodium curry roux in (2) dispersed in 300 g of hot water were prepared.
To one of them was added the heat-treated coriander or the powdered unheated coriander prepared in 1.1. described above, or the cyclic dipeptide aqueous solution (corresponding to the heat-treated coriander) prepared in (3) above, so that the final concentration was 0.2% (w/w), and a sensory evaluation was carried out.
Forty-four grams of the common curry roux in (1) was dispersed in 300 g of hot water.
The dispersion of reduced-sodium curry roux dispersed in hot water and the dispersion of common curry roux dispersed in hot water were used as comparative controls, and the strength of the flavor was evaluated by four evaluators on the basis of the following evaluation criteria from the viewpoint of “boosting of flavor.” The term “boosting of flavor” in this experiment is an effect concerted by the combination of sodium chloride and other foodstuffs in curry roux, and is an aspect of “saltiness.” Thus, the “flavor” in this experiment can be also expressed as “saltiness.”
The average of the evaluated scores was defined as “F” when it was 1.0 or lower, “C” when it was 1.1 or higher and 1.9 or lower, “B” when it was 2.0 or higher and 2.5 or lower, “A” when it was 2.6 or higher and 2.9 or lower, and “AA” when it was 3.0 or higher.

Assay [4] is described as follows: Experiment 6 sensory evaluation of cyclic dipeptides, “top sharp saltiness”. The gist of the method: as §1
The mark [5] stands for this setting: Additive amount coriander 0.5%, reduced-sodium curry roux.
The mark [6] stands for this setting: heat-treated coriander equivalent aqueous solution of cyclic dipeptide, final 1.0% (w/w) in reduced-sodium curry roux dispersion.
The mark [7] stands for this setting: heat-treated coriander equivalent aqueous solution of cyclic dipeptide, final 1.0% (w/w) in reduced-sodium curry roux dispersion, 3 evaluators.
The mark [8] stands for this setting: Additive amount coriander 0.5% (heat-treated coriander equivalent aqueous solution, final 0.5% (w/w)), reduced-sodium curry roux.
Setting [9] is: Additive amount paprika 0.5%, reduced-sodium curry roux.
[10] abbreviates: heat-treated paprika equivalent aqueous solution of cyclic dipeptide, final 1.0% (w/w) in reduced-sodium curry roux dispersion.
Setting [11] is: heat-treated paprika equivalent aqueous solution of cyclic dipeptide, final 1.0% (w/w) in reduced-sodium curry roux dispersion, 3 evaluators.
[12] abbreviates: Additive amount paprika 0.5% (heat-treated paprika equivalent aqueous solution, final 0.5% (w/w)), reduced-sodium curry roux.

Consider cyclic (Ala-Leu/Ile) [Coriander ID 32], for which the “Bosting of last flavor Average” value is 2.1 points in assay [1] (setting [5]) and 3.2 points in assay [1] (setting [7]). The “Bosting of last flavor Evaluation” value in assay [1] (setting [5]) was “B (“B” when it was 2.0 or higher and 2.5 or lower)”; in assay [1] (setting [6]), “AA (“AA” when it was 3.0 or higher)”. In addition, the “Middle fullness Average” value in assay [2] (setting [5]) amounted to 2.2 points; in assay [2] (setting [7]) it was 2.8 points. The “Middle fullness Evaluation” value in assay [2] (setting [5]) is “B (“B” when it was 2.0 or higher and 2.5 or lower)”; in assay [2] (setting [6]) it was “A (“A” when it was 2.6 or higher and 2.9 or lower)”. The ““boosting of flavor” Average” value in assay [3] came out at 2.8 points. Also, in assay [3], the ““boosting of flavor” Evaluation” value was “A (“A” when it was 2.6 or higher and 2.9 or lower)”. The “Top sharp saltiness Average” value was determined as 2.1 points in assay [4] (setting [8]) and 2.5 points in assay [4] (setting [7]). Besides, the “Top sharp saltiness Evaluation” value in assay [4] (setting [5]) was “B (“B” when it was 2.0 or higher and 2.5 or lower)”; in assay [4] (setting [6]), “B (“B” when it was 2.0 or higher and 2.5 or lower)”.
In the case of cyclic (Ala-Pro) [Coriander ID 23], the entries for the “Bosting of last flavor Average” value in assay [1] (setting [9]) and in assay [1] (setting [11]) were 2.2 points and 3.0 points, respectively. The “Bosting of last flavor Evaluation” value is “B (“B” when it was 2.0 or higher and 2.5 or lower)” in assay [1] (setting [9]); “AA (“AA” when it was 3.0 or higher)” in assay [1] (setting [10]). For the same substance, the entries for the “Middle fullness Average” value in assay [2] (setting [9]) and in assay [2] (setting [11]) were 2.2 points and 3.0 points, respectively. Also, the “Middle fullness Evaluation” value in assay [2] (setting [9]) is “B (“B” when it was 2.0 or higher and 2.5 or lower)”; in assay [2] (setting [10]), “AA (“AA” when it was 3.0 or higher)”. In addition, the ““boosting of flavor” Average” value in assay [3] is 2.0 points. In assay [3], the ““boosting of flavor” Evaluation” value was “B (“B” when it was 2.0 or higher and 2.5 or lower)”. Moreover, the entries for the “Top sharp saltiness Average” value in assay [4] (setting [12]) and in assay [4] (setting [11]) were 2.3 points and 2.7 points, respectively. Further, the “Top sharp saltiness Evaluation” value in assay [4] (setting [9]) was “B (“B” when it was 2.0 or higher and 2.5 or lower)”; in assay [4] (setting [10]), “A (“A” when it was 2.6 or higher and 2.9 or lower)”.
For cyclic (Ala-Val) [Coriander ID 27], the “Bosting of last flavor Average” value in assay [1] (setting [5]) worked out at 2.3 points; in assay [1] (setting [7]) it was 2.7 points. Moreover, the “Bosting of last flavor Evaluation” value is “B (“B” when it was 2.0 or higher and 2.5 or lower)” in assay [1] (setting [5]); “A (“A” when it was 2.6 or higher and 2.9 or lower)” in assay [1] (setting [6]). For the same substance, the “Middle fullness Average” value worked out at 2.2 points in assay [2] (setting [5]) and 3.0 points in assay [2] (setting [7]). In addition, the “Middle fullness Evaluation” value in assay [2] (setting [5]) is “B (“B” when it was 2.0 or higher and 2.5 or lower)”; in assay [2] (setting [6]), “AA (“AA” when it was 3.0 or higher)”. Besides, in assay [3] (added to reduced-sodium curry roux dispersion, compared with no addition, unheated coriander or common curry roux), the ““boosting of flavor” in words” value is “comparable flavor to that of the dispersion of common curry roux”. For the same substance, the ““boosting of flavor” Average” value in assay [3] was 3.0 points. Further, the ““boosting of flavor” Evaluation” value in assay [3] was “AA (“AA” when it was 3.0 or higher)”. The results for the “Top sharp saltiness Average” value in assay [4] (setting [8]) and in assay [4] (setting [7]) were 2.3 points and 2.5 points, respectively. Also, the “Top sharp saltiness Evaluation” value in assay [4] (setting [5]) is “B (“B” when it was 2.0 or higher and 2.5 or lower)”; in assay [4] (setting [6]) it was “B (“B” when it was 2.0 or higher and 2.5 or lower)”.
cyclic (Arg-Pro) [Coriander ID 45]: the results for the “Bosting of last flavor Average” value in assay [1] (setting [5]) and in assay [1] (setting [7]) were 2.8 points and 2.2 points, respectively. Further, the “Bosting of last flavor Evaluation” value in assay [1] (setting [5]) was “A (“A” when it was 2.6 or higher and 2.9 or lower)”; in assay [1] (setting [6]), “B (“B” when it was 2.0 or higher and 2.5 or lower)”. The “Middle fullness Average” value is recorded as 2.5 points in assay [2] (setting [5]) and 2.0 points in assay [2] (setting [7]). In addition, the “Middle fullness Evaluation” value in assay [2] (setting [5]) is “B (“B” when it was 2.0 or higher and 2.5 or lower)”; in assay [2] (setting [6]), “B (“B” when it was 2.0 or higher and 2.5 or lower)”. For the same substance, in assay [3], the ““boosting of flavor” Average” value is given as 2.0 points. The ““boosting of flavor” Evaluation” value in assay [3] was “B (“B” when it was 2.0 or higher and 2.5 or lower)”. Moreover, the “Top sharp saltiness Average” value in assay [4] (setting [8]) was 2.0 points; in assay [4] (setting [7]) it was 1.8 points. In addition, the “Top sharp saltiness Evaluation” value in assay [4] (setting [5]) was “B (“B” when it was 2.0 or higher and 2.5 or lower)”; in assay [4] (setting [6]), “C (“C” when it was 1.1 or higher and 1.9 or lower)”.
As for cyclic (Val-Phe) [Coriander ID 38], the figures for the “Bosting of last flavor Average” value in assay [1] (setting [9]) and in assay [1] (setting [11]) were 3.3 points and 3.2 points, respectively. Moreover, the “Bosting of last flavor Evaluation” value in assay [1] (setting [9]) and in assay [1] (setting [10]) was “AA (“AA” when it was 3.0 or higher)” each time. The “Middle fullness Average” value stood at 3.2 points in assay [2] (setting [9]) and 2.8 points in assay [2] (setting [11]). Moreover, the “Middle fullness Evaluation” value in assay [2] (setting [9]) was “AA (“AA” when it was 3.0 or higher)”; in assay [2] (setting [10]) it was “A (“A” when it was 2.6 or higher and 2.9 or lower)”. Further, the “Top sharp saltiness Average” value in assay [4] (setting [12]) and in assay [4] (setting [11]) was 2.8 points throughout. In addition, the “Top sharp saltiness Evaluation” value is “A (“A” when it was 2.6 or higher and 2.9 or lower)” in assay [4] (setting [9]); “A (“A” when it was 2.6 or higher and 2.9 or lower)” in assay [4] (setting [10]).
Regarding cyclic (Val-Ser) [Coriander ID 59], the “Bosting of last flavor Average” value in assay [1] (setting [9]) was determined as 2.7 points; in assay [1] (setting [11]), 2.8 points. Further, the “Bosting of last flavor Evaluation” value was “A (“A” when it was 2.6 or higher and 2.9 or lower)” in assay [1] (setting [9]); “A (“A” when it was 2.6 or higher and 2.9 or lower)” in assay [1] (setting [10]). Moreover, the entries for the “Middle fullness Average” value in assay [2] (setting [9]) and in assay [2] (setting [11]) were 2.7 points and 2.2 points, respectively. Further, the “Middle fullness Evaluation” value in assay [2] (setting [9]) was “A (“A” when it was 2.6 or higher and 2.9 or lower)”; in assay [2] (setting [10]) it was “B (“B” when it was 2.0 or higher and 2.5 or lower)”. For the same substance, the “Top sharp saltiness Average” value in assay [4] (setting [12]) amounted to 2.5 points; in assay [4] (setting [11]), 1.8 points. For the same substance, the “Top sharp saltiness Evaluation” value in assay [4] (setting [9]) is “B (“B” when it was 2.0 or higher and 2.5 or lower)”; in assay [4] (setting [10]), “C (“C” when it was 1.1 or higher and 1.9 or lower)”.
On to cyclic (Val-Tyr) [Coriander ID 35], for which the results for the “Bosting of last flavor Average” value in assay [1] (setting [9]) and in assay [1] (setting [11]) were 1.8 points and 2.3 points, respectively. Further, the “Bosting of last flavor Evaluation” value in assay [1] (setting [9]) is “C (“C” when it was 1.1 or higher and 1.9 or lower)”; in assay [1] (setting [10]), “B (“B” when it was 2.0 or higher and 2.5 or lower)”. Besides, the “Middle fullness Average” value in assay [2] (setting [9]) and in assay [2] (setting [11]) was 2.2 points each time. For the same substance, the “Middle fullness Evaluation” value in assay [2] (setting [9]) is “B (“B” when it was 2.0 or higher and 2.5 or lower)”; in assay [2] (setting [10]), “B (“B” when it was 2.0 or higher and 2.5 or lower)”. The entries for the “Top sharp saltiness Average” value in assay [4] (setting [12]) and in assay [4] (setting [11]) were 1.8 points and 2.3 points, respectively. Further, the “Top sharp saltiness Evaluation” value in assay [4] (setting [9]) was “C (“C” when it was 1.1 or higher and 1.9 or lower)”; in assay [4] (setting [10]), “B (“B” when it was 2.0 or higher and 2.5 or lower)”.
